Test results from PubChem BioAssay AID330 (DTP/NCI, 2004).
Values joined by “and” are separate entries in the source; they are usually repeats but may differ in a detail not shown here. Equal values may be shown once. Toxic doses and inconclusive results are not listed. Peptide text beside a SMILES is read from it. * marks the point of attachment. Cbz = O=C(OCc1ccccc1)*

Test system: P388 leukemia ip, CD2F1 mice, survival T/C
Assay: NCI In Vivo Anticancer Drug Screen. Data for tumor model P388 Leukemia (intraperitoneal) in CD2F1 (CDF1) mice
Details: endpoint: median survival time, higher = longer survival
Outline: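 Mice carrying the transplanted tumor received test compound or vehicle. Survival was recorded in each group, and the value is the treated-group measurement divided by that of the vehicle-treated control group.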

[1] = dose: 50.0 mg/kg/injection, schedule: Q01DX005 (ip), vehicle: saline with Tween-80
[2] = dose: 100.0 mg/kg/injection, schedule: Q01DX005 (ip), vehicle: saline with Tween-80
[3] = dose: 200.0 mg/kg/injection, schedule: Q01DX005 (ip), vehicle: saline with Tween-80
[4] = dose: 50.0 mg/kg/injection, schedule: Q04DX002 (ip), vehicle: Klucel (hydroxypropylcellulose) (HPC)
[5] = dose: 50.0 mg/kg/injection, schedule: Q01DX005 (ip), vehicle: Klucel (hydroxypropylcellulose) (HPC)
[6] = dose: 100.0 mg/kg/injection, schedule: Q01DX005 (ip), vehicle: Klucel (hydroxypropylcellulose) (HPC)
[7] = dose: 200.0 mg/kg/injection, schedule: Q01DX005 (ip), vehicle: Klucel (hydroxypropylcellulose) (HPC)
[8] = dose: 50.0 mg/kg/injection, schedule: Q01DX009 (ip), vehicle: Klucel (hydroxypropylcellulose) (HPC)
[9] = dose: 100.0 mg/kg/injection, schedule: Q01DX009 (ip), vehicle: Klucel (hydroxypropylcellulose) (HPC)
[10] = dose: 200.0 mg/kg/injection, schedule: Q01DX009 (ip), vehicle: Klucel (hydroxypropylcellulose) (HPC)
[11] = dose: 60.0 mg/kg/injection, schedule: Q01DX005 (ip), vehicle: saline with Tween-80
[12] = dose: 120.0 mg/kg/injection, schedule: Q01DX005 (ip), vehicle: saline with Tween-80
[13] = dose: 240.0 mg/kg/injection, schedule: Q01DX005 (ip), vehicle: saline with Tween-80

SMILES: CC(C)(C#N)NNC(N)=S
- T/C (dose: 3.12 mg/kg/injection, schedule: Q01DX009 (ip), vehicle: saline): 103 % of control
- T/C (dose: 6.25 mg/kg/injection, schedule: Q01DX009 (ip), vehicle: saline): 100 % of control
- T/C (dose: 12.5 mg/kg/injection, schedule: Q01DX009 (ip), vehicle: saline): 87 % of control and 93 % of control
- T/C (dose: 50.0 mg/kg/injection, schedule: Q04DX003 (ip), vehicle: saline): 96 % of control
- T/C (dose: 100.0 mg/kg/injection, schedule: Q04DX003 (ip), vehicle: saline): 96 % of control
- T/C (dose: 200.0 mg/kg/injection, schedule: Q04DX003 (ip), vehicle: saline): 94 % of control

SMILES: CC(C)(C)C1=CC(N2CCOCC2)(C(C)(C)C)C=C(C(C)(C)C)C1=O
- T/C [1]: 94 % of control
- T/C [2]: 103 % of control
- T/C [3]: 94 % of control

SMILES: C1=CN2C3=NCCN3C3=NCCN3C2c2ccccc21 (centres undefined)
- T/C (dose: 12.5 mg/kg/injection, schedule: Q04DX002 (ip), vehicle: Klucel (hydroxypropylcellulose) (HPC)): 102 % of control
- T/C (dose: 25.0 mg/kg/injection, schedule: Q04DX002 (ip), vehicle: Klucel (hydroxypropylcellulose) (HPC)): 99 % of control
- T/C [4]: 102 % of control

SMILES: CN(C)CCN(C=O)CCN(C)C
- T/C (dose: 50.0 mg/kg/injection, schedule: Q01DX005 (ip), vehicle: saline): 95 % of control
- T/C (dose: 100.0 mg/kg/injection, schedule: Q01DX005 (ip), vehicle: saline): 88 % of control
- T/C (dose: 200.0 mg/kg/injection, schedule: Q01DX005 (ip), vehicle: saline): 101 % of control

SMILES: O=[N+]([O-])c1ccc(N2C(c3ccccc3)=N[C@@H](N3CCOCC3)[C@@H]2N2CCOCC2)cc1
- T/C [5]: 101 % of control
- T/C [6]: 97 % of control
- T/C [7]: 95 % of control

SMILES: NC(N)=NC(N)=Nc1ccc([As](=O)(O)O)c(O)c1
- T/C (dose: 22.5 mg/kg/injection, schedule: Q01DX009 (ip), vehicle: saline): 105 % of control
- T/C (dose: 25.0 mg/kg/injection, schedule: Q01DX009 (ip), vehicle: saline sonified): 118 % of control
- T/C (dose: 33.0 mg/kg/injection, schedule: Q01DX009 (ip), vehicle: saline): 104 % of control
- T/C (dose: 45.0 mg/kg/injection, schedule: Q01DX009 (ip), vehicle: saline): 104 % of control
- T/C (dose: 50.0 mg/kg/injection, schedule: Q01DX009 (ip), vehicle: saline sonified): 118 % of control
- T/C (dose: 50.0 mg/kg/injection, schedule: Q01DX009 (ip), vehicle: saline): 109 % of control
- T/C (dose: 75.0 mg/kg/injection, schedule: Q01DX009 (ip), vehicle: saline): 122 % of control
- T/C (dose: 90.0 mg/kg/injection, schedule: Q01DX009 (ip), vehicle: saline): 115 % of control
- T/C (dose: 180.0 mg/kg/injection, schedule: Q01DX009 (ip), vehicle: saline): 117 % of control
- T/C (dose: 360.0 mg/kg/injection, schedule: Q01DX009 (ip), vehicle: saline): 103 % of control

SMILES: CC1(C)OCC(C2OC3OC(C)(C)OC3C2OP(=O)(N2CC2)N2CC2)O1 (centres undefined)
- T/C (dose: 50.0 mg/kg/injection, schedule: Q01DX009 (ip), vehicle: saline with Tween-80): 112 % of control
- T/C (dose: 100.0 mg/kg/injection, schedule: Q01DX009 (ip), vehicle: saline with Tween-80): 105 % of control

SMILES: O=C(c1ccccc1)c1cnc2ccccc2c1
- T/C [5]: 101 % of control
- T/C [6]: 101 % of control
- T/C [7]: 104 % of control

SMILES: Cc1ccc(S(=O)(=O)N=S(CCO)CCO)cc1
- T/C [8]: 106 % of control
- T/C [9]: 110 % of control
- T/C [10]: 108 % of control
- T/C (dose: 400.0 mg/kg/injection, schedule: Q01DX009 (ip), vehicle: Klucel (hydroxypropylcellulose) (HPC)): 107 % of control

SMILES: O=C(NC(Cc1ccccc1)C(=O)N1CCCC1C(=O)O)OCc1ccccc1 (stereo not drawn) (Cbz-Phe-Pro-OH; configuration not given here)
- T/C [1]: 95 % of control
- T/C [2]: 100 % of control
- T/C [3]: 97 % of control

SMILES: CC12C3=CC=C4C=CC=C(c5ccccc5C1=CC=C3)C42C (centres undefined)
- T/C [4]: 100 % of control
- T/C (dose: 100.0 mg/kg/injection, schedule: Q04DX002 (ip), vehicle: Klucel (hydroxypropylcellulose) (HPC)): 111 % of control
- T/C (dose: 200.0 mg/kg/injection, schedule: Q04DX002 (ip), vehicle: Klucel (hydroxypropylcellulose) (HPC)): 107 % of control

SMILES: O=C(CC[N+](=O)[O-])OCC1OC(OC(=O)CC[N+](=O)[O-])C(O)C(O)C1O (centres undefined)
- T/C (dose: 12.5 mg/kg/injection, schedule: Q01DX005 (ip), vehicle: water): 98 % of control
- T/C (dose: 25.0 mg/kg/injection, schedule: Q01DX001 (ip), vehicle: saline + alcohol): 102 % of control
- T/C (dose: 25.0 mg/kg/injection, schedule: Q01DX005 (ip), vehicle: water): 104 % of control
- T/C (dose: 50.0 mg/kg/injection, schedule: Q01DX001 (ip), vehicle: saline + alcohol): 96 % of control
- T/C (dose: 50.0 mg/kg/injection, schedule: Q01DX005 (ip), vehicle: water): 97 % of control
- T/C (dose: 100.0 mg/kg/injection, schedule: Q01DX001 (ip), vehicle: saline + alcohol): 105 % of control
- T/C (dose: 100.0 mg/kg/injection, schedule: Q01DX005 (ip), vehicle: water): 95 % of control
- T/C (dose: 200.0 mg/kg/injection, schedule: Q01DX005 (ip), vehicle: water): 100 % of control

SMILES: COc1ccc(C(C)c2cc3c(cc2OCC(=O)O)OCO3)cc1OC (centres undefined)
- T/C (dose: 50.0 mg/kg/injection, schedule: Q01DX005 (ip), vehicle: distilled water + Tween-80): 95 % of control
- T/C (dose: 100.0 mg/kg/injection, schedule: Q01DX005 (ip), vehicle: distilled water + Tween-80): 102 % of control

SMILES: CC(C)(C)OC(=O)NN(CC(=O)OCc1ccccc1)N=O
- T/C (dose: 12.5 mg/kg/injection, schedule: Q01DX009 (ip), vehicle: other): 104 % of control
- T/C (dose: 25.0 mg/kg/injection, schedule: Q01DX009 (ip), vehicle: other): 97 % of control
- T/C (dose: 50.0 mg/kg/injection, schedule: Q01DX009 (ip), vehicle: other): 97 % of control
- T/C (dose: 100.0 mg/kg/injection, schedule: Q01DX009 (ip), vehicle: other): 101 % of control
- T/C (dose: 200.0 mg/kg/injection, schedule: Q01DX009 (ip), vehicle: other): 97 % of control

SMILES: CS(=O)(=O)ON1C(=O)c2ccccc2C1=O
- T/C (dose: 25.0 mg/kg/injection, schedule: Q04DX003 (ip), vehicle: Klucel (hydroxypropylcellulose) (HPC)): 104 % of control and 108 % of control
- T/C (dose: 50.0 mg/kg/injection, schedule: Q04DX003 (ip), vehicle: Klucel (hydroxypropylcellulose) (HPC)): 105 % of control and 110 % of control
- T/C (dose: 100.0 mg/kg/injection, schedule: Q04DX003 (ip), vehicle: Klucel (hydroxypropylcellulose) (HPC)): 103 % of control and 95 % of control
- T/C (dose: 200.0 mg/kg/injection, schedule: Q04DX003 (ip), vehicle: Klucel (hydroxypropylcellulose) (HPC)): 100 % of control

SMILES: CSc1nc(N)n2nc(C3CC3)cc2n1
- T/C [11]: 102 % of control
- T/C [12]: 100 % of control
- T/C [13]: 100 % of control

SMILES: O=[N+]([O-])c1ccc2c(c1)C(N1CCOCC1)c1ccccc1-2 (centres undefined)
- T/C [5]: 98 % of control
- T/C [6]: 98 % of control
- T/C [7]: 100 % of control

SMILES: CC(NCCCCCCNC(C)C(=O)O)C(=O)O (centres undefined)
- T/C [1]: 105 % of control
- T/C [2]: 100 % of control
- T/C [3]: 117 % of control

SMILES: CSC(=S)NNC1=NCCCCC1
- T/C [8]: 106 % of control
- T/C [9]: 97 % of control
- T/C [10]: 87 % of control

SMILES: O=C(NNC(=O)C12CC3CC(CC(C3)C1)C2)C12CC3CC(CC(C3)C1)C2
- T/C (dose: 25.0 mg/kg/injection, schedule: Q01DX005 (ip), vehicle: Klucel (hydroxypropylcellulose) (HPC)): 105 % of control
- T/C [5]: 102 % of control
- T/C [6]: 105 % of control
- T/C [7]: 105 % of control

SMILES: Cc1ccc(S(=O)(=O)CC(=O)CC(=O)C(=O)Nc2ccc(Cl)cc2Cl)cc1
- T/C [11]: 100 % of control
- T/C [12]: 100 % of control
- T/C [13]: 100 % of control

SMILES: O=S(=O)(O)CC(O)CN(CCO)CCO (centres undefined)
- T/C (dose: 60.0 mg/kg/injection, schedule: Q01DX005 (ip), vehicle: saline): 108 % of control
- T/C (dose: 120.0 mg/kg/injection, schedule: Q01DX005 (ip), vehicle: saline): 102 % of control
- T/C (dose: 240.0 mg/kg/injection, schedule: Q01DX005 (ip), vehicle: saline): 100 % of control

SMILES: [Cl][Pt+2][Cl].[NH-]c1cccc(F)c1.[NH-]c1cccc(F)c1
- T/C (dose: 3.12 mg/kg/injection, schedule: Q01DX009 (ip), vehicle: Klucel (hydroxypropylcellulose) (HPC)): 158 % of control
- T/C (dose: 6.25 mg/kg/injection, schedule: Q01DX009 (ip), vehicle: Klucel (hydroxypropylcellulose) (HPC)): 155 % of control

SMILES: C=C1C(=C)C2OC1c1cc3c(cc12)C(=O)c1ccccc1C3=O
- T/C [1]: 90 % of control
- T/C [2]: 109 % of control
- T/C [3]: 114 % of control
